The subject of experiment [1] is larvae of the mustard beetle (Phaedon cochleariae). The experiment can be described thus: Phaedon larvae test. Conditions: 500 ppm, dipped cabbage leaves. The format is in vivo. As to the method:
(§1) Phaedon Larvae Test • Solvent: 7 parts by weight of dimethylformamide • Emulsifier: 2 parts by weight of alkylaryl polyglycol ether To produce a suitable preparation of active compound, 1 part by weight of active compound is mixed with the stated amounts of solvent and emulsifier, and the concentrate is diluted with emulsifier-containing water to the desired concentration. Cabbage leaves (Brassica oleracea) are treated by being dipped into the preparation of active compound of the desired concentration and are populated with larvae of the mustard beetle (Phaedon cochleariae) while the leaves are still moist. After the desired period of time, the kill in % is determined. 100% means that all beetle larvae have been killed; 0% means that none of the beetle larvae have been killed.

Experiment [2] concerns caterpillars of the armyworm (Spodoptera frugiperda). As to the kind of experiment: Spodoptera frugiperda test. The format is in vivo. Conditions: 500 ppm, dipped cabbage leaves. As to the method:
as §1, with “Spodoptera Frugiperda Test” for “Phaedon Larvae Test”, “with caterpillars” for “with larvae”, “the armyworm (Spodoptera frugiperda)” for “the mustard beetle (Phaedon cochleariae)”, “all caterpillar” for “all beetle”, “the caterpillar” for “the beetle larvae”

The subject of experiment [3] is greenhouse red spider mite (Tetranychus urticae). The experiment can be described thus: Tetranychus test (OP-resistant/dip treatment). Format: in vivo. Conditions: 100 ppm, dipped bean plants. As to the method: Tetranychus test (OP-Resistant/Dip Treatment)
• Solvent: 30 parts by weight of dimethylformamide • Emulsifier: 1 part by weight of alkylaryl polyglycol ether
To produce a suitable preparation of active compound, 1 part by weight of active compound is mixed with the stated amounts of solvent and emulsifier, and the concentrate is diluted with emulsifier-containing water to the desired concentration.
Bean plants (Phaseolus vulgaris) which are heavily infested by all stages of the greenhouse red spider mite (Tetranychus urticae) are dipped into a preparation of active compound of the desired concentration.
After the desired period of time, the effect in % is determined. 100% means that all spider mites have been killed; 0% means that none of the spider mites have been killed.

Experiment [4] deals with Alopecurus. As to the kind of experiment: Post-emergence test, Alopecurus. The format is in vivo. Conditions: post-emergence/greenhouse; 250 g a.i./ha; after three weeks. As to the method:
(§2) • Solvent: 5 parts by weight of acetone • Emulsifier: 1 part by weight of alkylaryl polyglycol ether
(§3) To produce a suitable preparation of active compound, 1 part by weight of active compound is mixed with the stated amount of solvent, the stated amount of emulsifier is added and the concentrate is diluted with water to the desired concentration.
(§4) Test plants of a height of 5-15 cm are sprayed with the preparation of active compound such that the particular amounts of active compound desired are applied per unit area. The concentration of the spray liquor is chosen such that the particular amounts of active compound desired are applied in 1000 l of water/ha.
(§5) After three weeks, the degree of damage to the plants is rated in % damage in comparison to the development of the untreated control.
(§6) The figures denote: • 0% =no effect (like untreated control) • 100% =total destruction

Experiment [5] has as its system Avena fatua. As to the kind of experiment: Post-emergence test, Avena fatua. The format is in vivo. Conditions: post-emergence/greenhouse; 250 g a.i./ha; after three weeks. As to the method:
as §2, §3, §4, §5, §6

In experiment [6] the test system is Setaria. As to the kind of experiment: Post-emergence test, Setaria. Conditions: post-emergence/greenhouse; 250 g a.i./ha; after three weeks. Format: in vivo. The method, then: as §2, §3, §4, §5, §6
The test system of the next experiment is Galium. As to the kind of experiment: Post-emergence test, Galium. The format is in vivo. Conditions: post-emergence/greenhouse; 250 g a.i./ha; after three weeks. As to the method: as §2, §3, §4, §5, §6
A further experiment concerns Meloidogyne incognita. As to the kind of experiment: Meloidogyne test. Format: in vivo. To be noted: 20 ppm active compound, nematicidal action by gall formation on lettuce roots. The method, then: Meloidogyne Test • Solvent: 30 parts by weight of dimethylformamide • Emulsifier: 1 part by weight of alkylaryl polyglycol ether To produce a suitable preparation of active compound, 1 part by weight of active compound is mixed with the stated amounts of solvent and emulsifier, and the concentrate is diluted with water to the desired concentration. Containers are filled with sand, solution of active compound, Meloidogyne incognita egg/larvae suspension and lettuce seeds. The lettuce seeds germinate the plants develop. On the roots, galls are formed. After the desired period of time, the nematicidal action is determined in % by the gall formation. 100% means that no galls have been found; 0% means that the number of galls on the treated plants corresponds to that of the untreated control.

For the next experiment, the system named is Sinapis. The experiment can be described thus: Post-emergence test, Sinapis. Format: in vivo. To be noted: post-emergence/greenhouse; 250 g a.i./ha; after three weeks. The method, then: as §2, §3, §4, §5, §6
In another experiment the test system is Wheat. As to the kind of experiment: Pre-emergence test, Wheat. The format is in vivo. Conditions: pre-emergence/greenhouse; 125 g a.i./ha; after three weeks; crop. As to the method:
as §2, §3
(§7) Seeds of the test plants are sown in normal soil. After about 24 hours, the soil is sprayed with the preparation of active compound such that the particular amounts of active compound desired are applied per unit area. The concentration of the spray liquor is chosen such that the particular amounts of active compound desired are applied in 1000 l of water/ha.
as §5, §6

Another experiment deals with Soya bean. The experiment can be described thus: Pre-emergence test, Soya bean. Conditions: pre-emergence/greenhouse; 125 g a.i./ha; after three weeks; crop. Format: in vivo. The method, then:
as §2, §3, §7, §5, §6

Another experiment has as its system Lolium. As to the kind of experiment: Pre-emergence test, Lolium. Format: in vivo. To be noted: pre-emergence/greenhouse; 125 g a.i./ha; after three weeks. The method, then: as §2, §3, §7, §5, §6
Experiment [7] relates to Setaria. The experiment can be described thus: Pre-emergence test, Setaria. Format: in vivo. To be noted: pre-emergence/greenhouse; 125 g a.i./ha; after three weeks. As to the method: as §2, §3, §7, §5, §6
In experiment [8] the test system is Alopecurus. The experiment can be described thus: Pre-emergence test, Alopecurus. Format: in vivo. Conditions: pre-emergence/greenhouse; 125 g a.i./ha; after three weeks. As to the method:
as §2, §3, §7, §5, §6

The test system of another experiment is Stellaria. The experiment can be described thus: Pre-emergence test, Stellaria. Conditions: pre-emergence/greenhouse; 125 g a.i./ha; after three weeks. Format: in vivo. As to the method:
as §2, §3, §7, §5, §6

For the next experiment, the system named is Matricaria. As to the kind of experiment: Pre-emergence test, Matricaria. The format is in vivo. Conditions: pre-emergence/greenhouse; 125 g a.i./ha; after three weeks. As to the method: as §2, §3, §7, §5, §6
The next experiment relates to Pyricularia oryzae. Format: cell-based. Conditions: 50% inhibition of fungal growth, tested at 0.1, 1, 10 and 100 ppm, 22° C., 3-5 days, photometric 620 nm.
A further experiment relates to Septoria tritici. As to the kind of experiment: In vitro test for the ED50 determination in microorganisms, Septoria tritici. Format: cell-based. To be noted: 50% inhibition of fungal growth, tested at 0.1, 1, 10 and 100 ppm, 22° C., 3-5 days, photometric 620 nm.
In another experiment the test system is Ustilago avenae. The experiment can be described thus: In vitro test for the ED50 determination in microorganisms, Ustilago avenae. The format is cell-based. Conditions: 50% inhibition of fungal growth, tested at 0.1, 1, 10 and 100 ppm, 22° C., 3-5 days, photometric 620 nm.
Another experiment relates to Digitaria. As to the kind of experiment: Pre-emergence test, Digitaria. Format: in vivo. To be noted: pre-emergence/greenhouse; 125 g a.i./ha; after three weeks. As to the method:
as §2, §3, §7, §5, §6

A further experiment concerns Sugar beet. The experiment can be described thus: Pre-emergence test, Sugar beet. The format is in vivo. To be noted: pre-emergence/greenhouse; 125 g a.i./ha; after three weeks; crop. As to the method: as §2, §3, §7, §5, §6
Experiment [9] concerns Avena fatua. As to the kind of experiment: Pre-emergence test, Avena fatua. The format is in vivo. To be noted: pre-emergence/greenhouse; 125 g a.i./ha; after three weeks. The method, then:
as §2, §3, §7, §5, §6

The next experiment deals with Polygonum. The experiment can be described thus: Pre-emergence test, Polygonum. To be noted: pre-emergence/greenhouse; 125 g a.i./ha; after three weeks. Format: in vivo. The method, then:
as §2, §3, §7, §5, §6

The subject of another experiment is Sugar-beet. The experiment can be described thus: Post-emergence test, Sugar beet. Format: in vivo. Conditions: post-emergence/greenhouse; 250 g a.i./ha; after three weeks; crop. As to the method:
as §2, §3, §4, §5, §6

Another experiment concerns Echinochloa. The experiment can be described thus: Post-emergence test, Echinochloa. The format is in vivo. To be noted: post-emergence/greenhouse; 250 g a.i./ha; after three weeks. The method, then: as §2, §3, §4, §5, §6

Consider `CCOC(=O)OC1=C(c2nc(-c3ccc(Cl)cc3)sc2C)C(=O)CC(C)(C)C1` [Example I-2-c-1], for which the “Kill rate in % after 7 d” value in experiment [1], in experiment [2] and in experiment [3] was 100% throughout. The “% damage, Alopecurus” value in the experiment with Alopecurus [4] is on record as 90%. In the experiment with Avena fatua [5], the “% damage, Avena fatua” value is 100%. Further, the “% damage, Setaria” value in the experiment with Setaria [6] is 100%. The “% damage, Galium” value in the experiment with Galium was 80%.
On to `CCOC(=O)OC1=C(c2nc(-c3ccc(Cl)cc3)sc2CC)C(=O)CC12CCCCC2` [Example I-1-c-3], for which the “Kill rate in % after 14 d” value with Meloidogyne incognita worked out at 100%. Besides, in [3], the “Kill rate in % after 7 d” value was 98%. Further, the “% damage, Alopecurus” value in the experiment on Alopecurus [4] is given as 100%; in the experiment on Alopecurus [8], 95%. Besides, the “% damage, Avena fatua” value with Avena fatua [5] was 100%. The “% damage, Setaria” value in the experiment with Setaria [6] and with Setaria [7] was 100% each time. Further, the “% damage, Sinapis” value with Sinapis is listed as 80%. Besides, the “% damage, Wheat” value with Wheat is listed as 10%. In the experiment on Soya bean, the “% damage, Soya bean” value stood at 0%. The “% damage, Lolium” value with Lolium was 100%. Also, the “% damage, Stellaria” value in the experiment on Stellaria is given as 70%.
Take `Cc1sc(-c2ccc(Cl)cc2)nc1C1=C(O)C(C)(C)CC1=O` [Example I-1-a-1]: in the experiment with Meloidogyne incognita, the “Kill rate in % after 14 d” value was 95%. Also, the “Kill rate in % after 7 d” value in experiment [3] is listed as 100%. In the experiment with Alopecurus [4], the “% damage, Alopecurus” value was determined as 100%. Moreover, in the experiment on Avena fatua [5], the “% damage, Avena fatua” value stood at 100%. The “% damage, Setaria” value in the experiment on Setaria [6] and with Setaria [7] was 100% each time. Further, the “% damage, Sinapis” value with Sinapis turned out to be 70%. Also, in the experiment with Soya bean, the “% damage, Soya bean” value is 0%. Besides, in the experiment with Lolium, the “% damage, Lolium” value is given as 100%. Besides, the “% damage, Matricaria” value in the experiment with Matricaria is reported as 100%. Also, the “% damage, Stellaria” value with Stellaria turned out to be 100%.
`Cc1sc(-c2ccc(Cl)cc2)nc1C1=C(O)CCCC1=O` [Example I-2-a-2]: the “Kill rate in % after 7 d” value in [3] worked out at 99%. In addition, the ED50 value in the experiment on Pyricularia oryzae is listed as 1.96 ppm; with Septoria tritici it was less than 0.1 ppm; in the experiment with Ustilago avenae, less than 0.1 ppm.
In the case of `CCc1sc(-c2ccc(Cl)cc2)nc1C1=C(O)C2(CCCCC2)CC1=O` [Example I-1-a-3], the “% damage, Alopecurus” value in the experiment on Alopecurus [4] is listed as 90%; in the experiment on Alopecurus [8], 95%. For the same compound, the “% damage, Avena fatua” value with Avena fatua [5] and with Avena fatua [9] was 100% throughout. Further, the “% damage, Setaria” value in the experiment on Setaria [6] is listed as 100%. Further, in the experiment on Sinapis, the “% damage, Sinapis” value came to 80%. In addition, in the experiment on Digitaria, the “% damage, Digitaria” value is 100%. Further, the “% damage, Sugar beet” value in the experiment with Sugar beet is 0%. Also, the “% damage, Polygonum” value in the experiment on Polygonum is given as 100%.
Consider `Cc1sc(-c2ccc(Cl)cc2)nc1C1=C(O)C(C)(C)CCC1=O` [Example I-2-a-3], for which the ED50 value with Pyricularia oryzae is given as less than 0.1 ppm; with Septoria tritici, less than 0.1 ppm; in the experiment with Ustilago avenae, 0.1 ppm.
Regarding `CCOC(=O)OC1=C(c2nc(-c3ccc(Cl)cc3)sc2C)C(=O)CC1(C)C` [Example I-1-c-1], the “Kill rate in % after 7 d” value in [1] is listed as 100%; in [2] it was 100%; in [3], 95%. Moreover, the “% damage, Avena fatua” value in the experiment with Avena fatua [5] came out at 90%. For the same compound, in the experiment on Setaria [6], the “% damage, Setaria” value was found to be 100%. Also, in the experiment with Sinapis, the “% damage, Sinapis” value was 70%. Further, the “% damage, Sugar-beet” value with Sugar-beet stood at 0%. Besides, the “% damage, Echinochloa” value with Echinochloa is 100%.

Source of the values: patent US7595404B2, “Thiazolyl-substituted carbocyclic 1,3-diones as pesticidal agents” (Bayer CropScience AG, priority 2001, dated 2009).
